Here are results for 1 compound from publication PMC10096180, “Half-Sandwich Type Platinum-Group Metal Complexes of C-Glucosaminyl Azines: Synthesis and Antineoplastic and Antimicrobial Activities” (Molecules, 2023).

For series [1], the system named is methicillin-resistant Staphylococcus aureus (MRSA) clinical isolates. As to the kind of experiment: Broth microdilution MIC, clinical MRSA isolates. It is filed as cell-based. Particulars: 24 h, 0.08–40 μM. The procedure, abridged: (§1)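 S. aureus and E. faecium clinical isolates (Debrecen, 2018–2020; MALDI-TOF-identified) tested by EUCAST broth microdilution in Mueller–Hinton broth at 5.0 × 10^5 CFU/mL across 0.08–40 μM (twofold). After 24 h at 37 °C, visually read; MIC is the lowest concentration giving ≥50% inhibition versus growth control. At least two runs in duplicate.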

In series [2] the test system is Staphylococcus aureus (ATCC29213). Nature of the series: Broth microdilution MIC, reference strain. Particulars: 24 h, 0.08–40 μM, read-out: MIC S. aureus ATCC 29213. It is filed as cell-based. The method, boiled down:
(§2)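 EUCAST broth microdilution in Mueller–Hinton broth, inoculum 5.0 × 10^5 CFU/mL, compounds at 0.08–40 μM (twofold dilutions), 24 h at 37 °C. Plates read visually; MIC taken as lowest concentration giving ≥50% inhibition versus drug-free growth control.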

The test system of series [3] is Enterococcus faecalis (ATCC29212). Nature of the series: Broth microdilution MIC, reference strain. The following applies: 24 h, tested range 0.08–40 μM, read-out: MIC E. faecalis ATCC 29,212. The class given is cell-based. The procedure, abridged: as §2
The test system of series [4] is ID8 cells. Nature of the series: SRB assay, 48 h. It is filed as cell-based. The protocol: (§3) Figure 8 Assessment of free ligand 3a and complex Ru-3a for cytostatic activity in multiple carcinomas. […] Cells were treated with the compounds in the concentrations indicated for 48 h; then, an SRB assay was performed. Data are represented as average ± SD from three biological replicates; individual assays were performed in duplicates. Values were normalized for vehicle-treated cells; absorbance for vehicle-treated cells equals 1. Statistical significance was assessed using a one-way ANOVA test comparing all values to the lowest concentration of a compound. Before the test, normality was assessed using the Shapiro–Wilk test, and the post hoc test was chosen accordingly. […] An SRB assay measures protein content of cells in correlation with the cell number in an assay well and can therefore be used to assess cell proliferation or long-term cytostasis. Cells were seeded in 96-well plates the day before the assay. Cells were treated with the compounds for 48 h. Then medium was removed, and cells were fixed with 10% trichloroacetic acid. […] Stained cells were washed in 1% acetic acid 5 times; acetic acid was removed, and cells were left to dry. Protein-bound SRB was released by adding 100 μL 10 mM Tris base. Plates were measured in a plate photometer (Thermo Scientific Multiscan GO spectrophotometer, Waltham, MA, USA) at 540 nm. On each plate, wells were designed to contain vehicle-treated cells. […] Statistical analysis was performed using version 8.0.1 of GraphPad Prism. Values were tested for normal distribution using the Shapiro–Wilk normality test. […] In other cases, the percentage of inhibition was taken for the maximum concentration (100 μM).

In series [5] the test system is Capan2 cells. As to the kind of experiment: SRB assay, 48 h. It is filed as cell-based. The protocol:
as §3

Series [6] has as its system U251 cells. As to the kind of experiment: SRB assay, 48 h. The class given is cell-based. The protocol:
as §3

Series [7] relates to MCF7 cells. As to the kind of experiment: SRB assay, 48 h. The class given is cell-based. The protocol:
as §3

Series [8] deals with vancomycin-resistant Enterococcus (VRE) clinical isolates. As to the kind of experiment: Broth microdilution MIC, clinical VRE isolates. It is filed as cell-based, E. faecium. Particulars: 24 h, 0.08–40 μM. The method, boiled down:
as §1

Series [9] has as its system A2780 cells. Nature of the series: MTT reduction assay, early toxicity, 4 h treatment. The class given is cell-based. The method, boiled down: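 Cells plated the day before, exposed to compounds for 4 h, then MTT 0.5 mg/mL for 40–60 min at 37 °C; reduced dye dissolved in DMSO, read at 540 nm relative to vehicle wells. IC50 by four-parameter fit; otherwise % inhibition at 100 μM.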

Series [10] in a line: Distribution coefficient (logD), n-octanol-PBS. It is filed as physicochemical. The following applies: n-octanol-PBS (pH = 7.4) system. The protocol: The logD values of the newly synthesized complexes were determined according to a procedure described in our previous publications. page 64: Ir-7b +1.17 Rh-7b +1.41 Ru-7c +1.31 Os-7c +1.59 Ir-7c +1.40 Rh-7c +1.13 Ru-7d +1.26 Os-7d +1.42 Ir-7d +1.30 Rh-7d +1.04 Ru-7e +2.22 Os-7e +2.21 Ir-7e +1.39 Rh-7e +1.66 *logD was determined in an n-octanol-PBS (pH = 7.4) system 64 (14 pictures or pasted objects on this page, not shown here)

Like-named read-outs stand apart in the source and are kept apart here.

For `Cc1ccc(C(C)C)cc1.F[P-](F)(F)(F)(F)F.N[C@@H]1[C@@H](OCc2ccccc2)[C@H](OCc2ccccc2)[C@@H](COCc2ccccc2)O[C@H]1c1ccccn1.[Cl][Ru+]` [Ru-3a], the MIC came out at 5 µM in series [1] (clinical isolate 20,426 MRSA, read-out: MIC 20,426 MRSA); 5 µM in series [1] (clinical isolate 24,035 MRSA, read-out: MIC 24,035 MRSA); 5 µM in series [1] (clinical isolate 24,268 MRSA, read-out: MIC 24,268 MRSA); 5 µM in series [1] (clinical isolate 24,272 MRSA, read-out: MIC 24,272 MRSA); 5 µM in series [1] (clinical isolate 24,328 MRSA, read-out: MIC 24,328 MRSA); 5 µM in series [1] (clinical isolate 24,408 MRSA, read-out: MIC 24,408 MRSA). Besides, the minimum inhibitory concentration (MIC) in series [2] was determined as 5 µM; in series [3] it was 10 µM; in series [8] (clinical isolate 25,051 VRE, read-out: MIC 25,051 VRE), 5 µM; in series [8] (clinical isolate 25,498 VRE, read-out: MIC 25,498 VRE), 5 µM; in series [8] (clinical isolate 27,085 VRE, read-out: MIC 27,085 VRE) it was 5 µM. The IC50 in series [4] is 2540 nM; in [5], 2250 nM; in series [6] it was 3970 nM; in [7] it was 2300 nM; in [9], 8020 nM. Further, in series [4], the “ID8 SRB Max Inhibition” value was over 90%. The “Capan2 SRB Max Inhibition” value in series [5] is listed as over 90%. Moreover, the “U251 SRB Max Inhibition” value in [6] was over 90%. Besides, the “MCF7 SRB Max Inhibition” value in series [7] is over 90%. Besides, the “A2780 MTT Max Inhibition” value in series [9] (inhibition at maximum concentration (100 μM) where no plateau, ND = not detectable) is listed as over 90%. The same compound had a log distribution coefficient (logD) in series [10] of 2.72.
